# Results published in patent US20090269795A1, “Mutant alpha4betadelta GABAA receptor and methods of treating anxiety or irritability” (priority 2007, published 2009).
# Assays:
# α4β3δ receptors = test: Whole cell patch clamp of GABA-gated current, recombinant receptors in HEK-293 cells; assay type: cell-based, human or mouse α4, rat β3, human δ; conditions: 30 nM THP
# Excerpt: Recombinant receptors: Transfection—Plasmids obtained from S. Vicini (rat α1, α5, β2, β3 and γ2), P. Whiting (human α4 and δ) and N. L. Harrison (mouse α4) were propagated in E coli DH5α and prepared using Qiagen Maxi- or Midi-prep kits. (Rat, mouse and human α1, β2, β3 and γ2 subunits are identical or nearly identical.) All receptors were transfected at a 1:1:1 ratio, except α1β2γ2 (1:1:5)^12, α4βδ (5:1:5)^13 and α4β2γ2 (5:1:1). HEK-293 cells were maintained in medium (DMEM:Ham's F-12 1:1) supplemented with 10% fetal calf serum at 37° C. in a humid 5% CO2 atmosphere. Cells were transfected using calcium phosphate or Polyfect (Qiagen) and co-transfected with enhanced green fluorescent protein (ratio of DNA to eGFP was 6:1 or 10:1 depending on the DNA concentration) for visualization. α4-containing GABAA receptors required 2-3 d for maximal levels of expression; all other receptors were recorded 1-2 d after transfection. Because mouse α4 and human α4-containing receptors yielded the same results, the currents were averaged together.
# Whole cell patch clamp recording—GABA-gated currents were recorded at room temperature (20-22° C.) at a holding potential of −50 mV^14. […] Currents were recorded using an Axopatch 1D amplifier (Axon Instruments) filtered at 2 kHz (four-pole Bessel filter) and detected at 10 kHz (pClamp 5.1). […]
# α1β2γ2 receptors = biological target: T1, α1β2γ2 receptors (Rattus norvegicus, UniProt P62813+P63138); test: as above; assay type: cell-based; conditions: 30 nM THP
# T1 construct: expressed in transfected cells; host or cells: HEK-293
# T1 sequence (P62813 28-455): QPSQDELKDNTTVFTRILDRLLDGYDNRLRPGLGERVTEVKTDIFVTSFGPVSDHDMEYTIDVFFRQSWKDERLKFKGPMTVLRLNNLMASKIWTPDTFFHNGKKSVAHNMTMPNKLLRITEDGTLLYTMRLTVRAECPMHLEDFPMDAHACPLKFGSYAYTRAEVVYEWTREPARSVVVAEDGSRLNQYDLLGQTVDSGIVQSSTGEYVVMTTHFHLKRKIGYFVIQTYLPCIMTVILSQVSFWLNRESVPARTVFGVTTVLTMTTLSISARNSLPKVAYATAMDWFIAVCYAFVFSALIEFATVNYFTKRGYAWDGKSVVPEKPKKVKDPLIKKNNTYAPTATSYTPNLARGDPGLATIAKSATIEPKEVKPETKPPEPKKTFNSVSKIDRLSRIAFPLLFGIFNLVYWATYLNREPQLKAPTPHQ
# T1 sequence (P63138 25-474 limits assumed): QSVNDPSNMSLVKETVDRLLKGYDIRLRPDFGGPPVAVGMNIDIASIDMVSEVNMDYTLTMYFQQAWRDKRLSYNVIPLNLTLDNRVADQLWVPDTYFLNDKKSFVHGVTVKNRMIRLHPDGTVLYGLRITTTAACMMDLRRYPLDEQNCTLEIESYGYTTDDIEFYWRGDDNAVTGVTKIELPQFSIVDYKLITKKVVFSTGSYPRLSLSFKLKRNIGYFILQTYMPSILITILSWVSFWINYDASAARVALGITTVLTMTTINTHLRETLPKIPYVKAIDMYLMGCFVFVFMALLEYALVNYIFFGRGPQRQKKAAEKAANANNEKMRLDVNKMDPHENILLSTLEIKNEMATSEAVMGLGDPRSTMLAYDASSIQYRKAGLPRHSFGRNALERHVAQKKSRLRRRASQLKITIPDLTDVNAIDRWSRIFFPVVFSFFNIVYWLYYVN
# T1 sequence (P18508 39-466 partner): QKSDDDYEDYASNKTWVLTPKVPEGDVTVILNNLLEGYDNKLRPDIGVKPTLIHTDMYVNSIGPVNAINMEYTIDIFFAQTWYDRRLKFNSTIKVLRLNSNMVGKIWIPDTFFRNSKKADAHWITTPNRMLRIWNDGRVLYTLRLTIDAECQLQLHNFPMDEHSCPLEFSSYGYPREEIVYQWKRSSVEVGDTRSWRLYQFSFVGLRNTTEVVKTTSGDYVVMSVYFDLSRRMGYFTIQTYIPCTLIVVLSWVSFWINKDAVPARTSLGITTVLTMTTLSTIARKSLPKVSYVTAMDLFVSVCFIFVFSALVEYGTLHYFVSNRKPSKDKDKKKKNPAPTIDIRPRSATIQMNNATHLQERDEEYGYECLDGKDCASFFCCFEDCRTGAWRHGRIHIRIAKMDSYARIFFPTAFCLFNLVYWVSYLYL
# Excerpt: Recombinant receptors: Transfection—Plasmids obtained from S. Vicini (rat α1, α5, β2, β3 and γ2), P. Whiting (human α4 and δ) and N. L. Harrison (mouse α4) were propagated in E coli DH5α and prepared using Qiagen Maxi- or Midi-prep kits. (Rat, mouse and human α1, β2, β3 and γ2 subunits are identical or nearly identical.) All receptors were transfected at a 1:1:1 ratio, except α1β2γ2 (1:1:5)^12, α4βδ (5:1:5)^13 and α4β2γ2 (5:1:1). HEK-293 cells were maintained in medium (DMEM:Ham's F-12 1:1) supplemented with 10% fetal calf serum at 37° C. in a humid 5% CO2 atmosphere.
# The pipet solution contained (in mM): N-methyl-D-glucamine chloride 120, Cs4BAPTA 5 (Calbiochem), Mg-ATP 5, and an ATP regeneration system (20 mM Tris phosphocreatine and creatine kinase). Internal [Cl^−] or the holding potential were varied, using gluconate as the anion, to alter the direction of Cl^− flow, corrected for the junction potential.
# HEK-293 cells were maintained in medium (DMEM:Ham's F-12 1:1) supplemented with 10% fetal calf serum at 37° C. in a humid 5% CO2 atmosphere.
# [1] = tested on: CA1 hippocampal pyramidal cells; test: Input resistance and neuronal excitability (spiking), hippocampal slice; assay type: cell-based, mouse
# Protocol: Tonic current was recorded as the difference current produced by 120 μM gabazine, which blocks all GABAA receptor, before and after 30 nM THP^24. Current was also recorded in response to 2 s 10 mV steps in the holding potential, and current-voltage curves generated to the steady-state current. Because fast-inactivating conductances would not be excluded in a voltage ramp, stable steady-state current responses were used instead to construct the current-voltage (IV) curves. Input resistance (Rm) was calculated from the current response to voltage steps from −60 to −40 mV using Ohm's Law. The reversal potential was determined by the […] of the IV curve (−90 to −10 mV). The gabazine-sensitive slope conductance was assessed as the slope of the linear portion of outward current plot recorded before and after THP after subtraction of the gabazine-generated current (in the presence of L-655,708 to block α5-GABAA receptors). Only data with a stable baseline and pipet access resistance <10 MΩ were included in the analysis.
# Effects of THP on cell excitability were tested by monitoring spiking using cell attached patch recordings^31 in voltage clamp mode (−40 mV holding potential, 150 mM NaCl intrapipet solution) or assessing the current threshold to spiking and spike frequency in current clamp mode (0.01-0.3 nA steps, starting from −1 nA, 1 s duration). (More complete details are supplied in the Supplementary Methods.)
# [2] = puberty, whole cell current clamp
compound,measurement,setting,value
"CC(=O)[C@H]1CC[C@H]2[C@@H]3CC[C@H]4C[C@H](O)CC[C@]4(C)[C@H]3CC[C@]12C [THP, 3α-OH-5α[β]-pregnan-20-one]",effect on outward current,α4β3δ receptors,either increased or had no effect
same,effect on outward current,α1β2γ2 receptors,either increased or had no effect
same,increase of input resistance,"[1]; 30 nM THP, puberty, 10 mV steps −60 to −40",38±5%
same,effect on input resistance,[1]; before puberty,decreased input resistance
same,effect on neuronal excitability,[1]; before puberty,decreased neuronal excitability
same,"effect on spiking, cell-attached",[1]; puberty,increased spiking
same,effect on action potential frequency,[1]; [2],increased action potential frequency
same,effect on current threshold for spiking (I threshold),[1]; [2],reduced the amount of current necessary for triggering a spike
same,THP-induced increase of input resistance,[1]; slices from δ−/− mice,not seen
same,excitatory effect on neuronal firing,[1]; slices from δ−/− mice,not observed
